US8969333B2, “Therapeutic compositions and methods” (The Penn State Research Foundation, priority 2010, dated 2015)
Read-outs that look alike come from different tables or passages of the source.

Columns and labels:
p53 and its target genes = assay: RT-qPCR and Western blot of p53 and its target genes in U2OS cells; assay type: cell-based, human; conditions: U2OS cells
Protocol: Western blot and immunostaining was performed essentially as described in Li, P. et al., Oncogene 29 (21), 3153-3162 (2010). Antibodies used in Western blot were anti-p53 (Sigma), anti-PAD4, anti-p21 (Sigma), anti-PUMA (Calbiochem), anti-SESN2 (Abeam), anti-p70S6K (Cell Signaling), anti-p70S6K-pT389 (Cell Signaling), anti-LC3 (Cell Signaling) and anti-β-actin (Sigma) at appropriate dilutions. Anti-LC3B antibody (Cell Signaling) was used for immunostaining. DNA was stained by the DNA dye Hoechst.
RNA was extracted using RNeasy Mini Kit (Qiagen) per manufacturer's instructions. 1 μg RNA was reverse transcribed into cDNA using qScript cDNA SuperMix (Quanta Biosciences) per manufacturer's instructions. Quantitative PCR was performed using SYBR Green SuperMix (Quanta Biosciences) in StepOnePlus Real-Time PCR System (Applied Biosystems). FIG. 10 is a graph showing p53 and its target gene expression induced in S180 cells by YW3-56 in a concentration dependent manner.
U2OS and S-180 cells were cultured in Dulbecco modified Eagle medium (DMEM) supplemented with 10% fetal bovine serum and 1% penicillin-streptomycin in a 5% CO2 incubator. U2OS p53-shRNA and U2OS Ctrl-shRNA cells were generated as described in Li, P. et al., Regulation of p53 target gene expression by peptidylarginine deiminase 4. Mol Cell Bial 28 (15), 4745-4758 (2008). Concentrations and duration of YW3-56 treatment were performed as specified in the figures and text. For starvation assay, U2OS cells were first cultured in serum-free DMEM for 16 hr, 10% fetal bovine serum and different concentrations of YW3-56 was then added back and cells were further incubated for 8 hr before further analyses. SESN2 siRNA (Santa Cruz) and GFP siRNA (Dharmacon Inc.) were transfected into U2OS cells using the XtremeGene siRNA transfection reagents (Roche Inc.). Cells were incubated in the presence of the siRNA for 48 hr before adding YW3-56 and further incubated for 8 hr before analyses.
The relative abundance of each gene is compared with β-actin as a reference. Increase in several p53 target genes, such as p21, GADD45, PUMA, OKL38, DRAM, and Sestrin2, is detected after YW3-88 treatment at 12 μM concentration. […] Increase in p21 and PUMA proteins is detected.

[1] = test system: U2OS human osteosarcoma cells; assay: MTT assay of U2OS cancer cell growth inhibition; assay type: cell-based; conditions: for IC50: read-out: 50% inhibition Cell growth, U2OS cells, MTT, 72 hr; for U2OS cell growth in MTT assay: 20 μM, 3 days
Protocol: MIT assays are conducted to evaluate activity to inhibit cancer cell growth. U2OS human osteosarcoma cells were treated with individual compounds at different concentrations for 72 hr in 24-well plates. MIT reagent was added to a final concentration of 0.5 mg/ml and further incubated for 4 hr. The yellow-colored MTT was reduced to insoluble purple-colored Formazan in living cells. Culture medium was removed and DMSO was added to dissolve Formazan into solution. The absorbance of the solution was then measured at 570 nm using a Thermo BioMate™ 3 spectrophotometer. Results are shown in FIG. 1 and average and standard deviations are shown (n>=3).
Cells were treated with individual compounds at different concentrations for 72 hr in 24-well plates. MTT reagent was added to a final concentration of 0.5 mg/ml and further incubated for 4 hr. The yellow-colored MTT was reduced to insoluble purple-colored Formazan in living cells. Culture medium was removed and DMSO was added to dissolve Formazan into solution. The absorbance of the solution was then measured at 570 nm using a Thermo BioMate™ 3 spectrophotometer.

PAD4 = PAD4 (Homo sapiens (Human), UniProt Q9UM07); assay: PAD4 enzyme activity colorimetric assay (citrullination of BAEE); assay type: biochemical; conditions: 0.2 μg PAD4, 5 mM BAEE, 37° C.
Chain of PAD4 (Q9UM07 whole entry, species assumed): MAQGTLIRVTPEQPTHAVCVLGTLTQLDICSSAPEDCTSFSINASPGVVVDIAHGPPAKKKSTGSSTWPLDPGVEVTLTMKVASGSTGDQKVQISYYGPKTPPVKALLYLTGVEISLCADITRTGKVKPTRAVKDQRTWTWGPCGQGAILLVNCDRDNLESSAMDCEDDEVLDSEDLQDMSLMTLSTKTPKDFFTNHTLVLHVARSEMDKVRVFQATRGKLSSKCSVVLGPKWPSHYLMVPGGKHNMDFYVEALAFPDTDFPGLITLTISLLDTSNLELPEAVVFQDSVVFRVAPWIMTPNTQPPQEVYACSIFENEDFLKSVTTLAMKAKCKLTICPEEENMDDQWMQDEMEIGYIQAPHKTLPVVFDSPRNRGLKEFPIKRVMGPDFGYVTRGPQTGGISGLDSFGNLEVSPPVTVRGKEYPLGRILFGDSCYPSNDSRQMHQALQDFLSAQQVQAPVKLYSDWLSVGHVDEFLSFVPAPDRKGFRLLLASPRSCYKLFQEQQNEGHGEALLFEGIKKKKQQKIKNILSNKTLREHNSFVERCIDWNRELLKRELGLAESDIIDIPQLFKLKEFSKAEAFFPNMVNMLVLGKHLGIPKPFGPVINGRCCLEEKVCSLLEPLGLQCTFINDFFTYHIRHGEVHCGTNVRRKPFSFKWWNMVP
Protocol: PAD4 enzyme activity assays are conducted to determine PAD4 inhibitory activity. PAD4 inhibition efficacy of the inhibitors is determined using a colorimetric assay for citrullination production.
The inhibition efficacy of PAD4 inhibitors were determined by colorimetric measurement of citrulline generated by PAD4 catalyzed citrullination of BAEE. 0.2 μg PAD4 was pre-incubated with inhibitors in 100 μl buffer containing 50 mM Tris-HCl pH7.6, 5 mM CaCl2, 2 mM DTT for 0.5 hr at 37° C. The reaction was started by the addition of BAEE to 5 mM and halted 1.5 hr later with the addition of 25 μl 5 M HClO4. Then the samples were briefly centrifuged at 12000 rpm for 2 min at 4° C. and the supernatant (120 μl) were assayed for citrulline by mixing with 120 μl reagent A (0.5% w/v diacetyl monoxime and 15% w/v NaCl in water) and 240 μl reagent B (1% w/v antipyrine, 0.15% w/v ferric chloride, 25% v/v H2SO4 and 25% v/v H3PO4). The mixtures were boiled for 15 min and cooled to room temperature in ice bath. The absorbance of the reagent mixtures at 464 nm was measured by Thermo BioMate™ 3 spectrophotometer. Efficacies of inhibitors are indicated as relative PAD4 citrullination activity by normalizing the PAD4 activity without inhibitor treatment to 100%.

[2] = test system: human HL-60 granulocytic cells; conditions: HL-60 granulocytic cells (Wang et al., 2009); cited from earlier work
[3] = test system: PAD4+/+ mouse neutrophils; assay: Histone citrullination, enlarged nucleus and NET formation in PAD4+/+ neutrophils; assay type: cell-based; conditions: for NET formation, percentage of neutrophils / Histone citrullination, percentage of positive neutrophils / Enlarged nucleus, percentage of neutrophils: PAD4+/+; for NET formation, percentage of neutrophils / Enlarged nucleus, percentage of neutrophils: Cl-amidine 200 μM 30 min prior to LPS; for Histone citrullination, percentage of positive neutrophils: Cl-amidine 200 μM 30 min prior to LPS for 3 hr; for Enlarged nucleus, percentage of neutrophils: nuclear diameter over 1.5 fold larger
Protocol: (§1) NET formation is induced after lipopolysaccharides (LPS) and phorbol myristate acetate (PMA) treatment in human neutrophils (Brinkmann et al., 2004). To test whether PAD4 is important for chromatin decondensation and NET formation upon LPS treatment, immunostaining experiments are performed. Before LPS treatment, ˜3.69% of PAD4^+/+ neutrophils are positively stained for histone H3 citrullination but NET formation is not detected, while histone H3 citrullination or NET formation is not observed in PAD4^−/− neutrophils. After LPS treatment, an increase in histone H3 citrullination is detected in PAD4^+/+ but not in PAD4^−/− neutrophils by Western blotting or immunostaining analyses. […] The decondensed chromatin induced by LPS is positively stained by histone H3 citrullination and neutrophil elastase antibodies, indicating these structures are indeed NETs. […] Furthermore, chromatin decondensation and histone citrullination are detected in PAD4^+/+ but not in PAD4^−/− neutrophils after PMA treatment.
(§2) Table II illustrates the efficacy of LPS, PMA, and H2O2 in inducing chromatin structure changes in PAD4^+/+ and PAD4^−/− neutrophils. […] PAD4 is required for NET formation after stimulation of neutrophils.

[4] = test system: PAD4-/- mouse neutrophils; assay: Histone citrullination, enlarged nucleus and NET formation in PAD4-/- neutrophils; assay type: cell-based; conditions: U.D. = undetectable
Protocol: as §1, §2

[5] = Body and vital organ weight after 1 week of treatment; assay type: in vivo, mouse
Protocol: S180 ascites tumor cells were used to form solid tumors after subcutaneous injection essentially as described in Wang, W. et al., Mol. Biosyst., 2011, 7:766-772. In brief, for initiation of subcutaneous tumors, the cells were obtained as an ascitic form from the tumor-bearing mice, which were serially transplanted once per week. Subcutaneous tumors were implanted by injecting 0.2 ml of 0.9% saline containing 1×10^7 viable tumor cells under the skin on the right armpit. 24 hr after implantation, male ICR mice were randomly divided into experimental groups. The mice in the positive control group were given a daily i.p injection of 2 mg/kg of doxorubicin in 0.2 ml of 0.9% saline for 7 consecutive days. The mice in the negative control group were given a daily i.p injection of 0.2 ml of 0.9% saline for 7 consecutive days. […] The weights of the mice were recorded every day. […]
FIG. 13A-13F show weight of whole body, FIG. 13A; brain, FIG. 13B; heart, FIG. 13C; liver, FIG. 13D; kidney, FIG. 13E; and spleen, FIG. 13F measured in mice after 1 week of treatment with daily intraperitoneal injection of control PBS, YW3-56 at 10 mg/kg body weight, SAHA at 5 mg/kg body weight, a mixture of YW3-56 at 5 mg/kg body weight and SAHA at 2.5 mg/kg body weight, or doxorubicin at 2 mg/kg body weight. * in (f) denotes a loss of spleen weight after doxorubicin treatment.

S180 tumor = assay: Sarcoma S180 cell-derived mouse tumor model; assay type: in vivo; conditions: SAHA 5 mg/kg daily for 1 week
Text: A well-established sarcoma S180 cell-derived mouse tumor model is used in this example to determine the effects of PAD4 inhibitors of the present invention on tumor growth in mice.
S180 ascites tumor cells were used to form solid tumors after subcutaneous injection essentially as described in Wang, W. et al., Mol. Biosyst., 2011, 7:766-772. In brief, for initiation of subcutaneous tumors, the cells were obtained as an ascitic form from the tumor-bearing mice, which were serially transplanted once per week. Subcutaneous tumors were implanted by injecting 0.2 ml of 0.9% saline containing 1×10^7 viable tumor cells under the skin on the right armpit. 24 hr after implantation, male ICR mice were randomly divided into experimental groups. The mice in the positive control group were given a daily i.p injection of 2 mg/kg of doxorubicin in 0.2 ml of 0.9% saline for 7 consecutive days. The mice in the negative control group were given a daily i.p injection of 0.2 ml of 0.9% saline for 7 consecutive days. The mice in the treatment groups were given a daily i.p injection of YW3-56 (10 mg/kg), SAHA (5 mg/kg), or a combination of YW3-56 (5 mg/kg) and SAHA (2.5 mg/kg) for 7 consecutive days. The weights of the mice were recorded every day. 24 hr after the last administration, all mice were weighed, euthanized and immediately dissected to obtain and weigh the tumor and vital organs.

[6] = read-out: 50% inhibition PAD4 activity

| Molecule | IC50 ([1]; Homo sapiens) [µM] | IC50 (PAD4; [6]) [µM] | NET formation, percentage of neutrophils [3] [%^5] | Histone citrullination, percentage of positive neutrophils [3] [%^5] | Enlarged nucleus, percentage of neutrophils [3] [%^5] | Enlarged nucleus, percentage of neutrophils [4] | Histone citrullination, percentage of positive neutrophils [4] | NET formation, percentage of neutrophils [4] | also measured |
| --- | --- | --- | --- | --- | --- | --- | --- | --- | --- |
| N=C(CCl)NCCC[C@H](NC(=O)c1ccccc1)C(=O)NCc1ccccc1 [BL1-07] | 10 to 20 | > 20 | – | – | – | – | – | – | induction of p53 and its target genes (p53 and its target genes; even at higher concentrations): less potent |
| NC(=O)[C@H](CCCN=C(N)CCl)NC(=O)c1ccccc1 [Cl-amidine] | – | – | 0.32 ± 0.3 | 8.1 ± 1.3 | 1.2 ± 0.2 | U.D. | U.D. | U.D. | formation of NET-like structure [2]: represses the formation of NET-like structure; IC50 [1]: 150 to 200 µM; histone H3 citrullination and chromatin decondensation induced by LPS ([3]; pretreatment of PAD4+/+ mouse neutrophils): significantly decreases |
| CCCCCCCCCCCCCC(=O)O[C@@H]1[C@@H](C)[C@@]2(O)[C@@H](C=C(CO)C[C@]3(O)C(=O)C(C)=C[C@@H]23)[C@@H]2C(C)(C)[C@]12OC(C)=O [PMA, phorbol myristate acetate] | – | – | 2.7 ± 0.5 | 48.5 ± 3 | 10.9 ± 0.3 | U.D. | U.D. | U.D. | – |
| O=C(CCCCCCC(=O)Nc1ccccc1)NO [SAHA, suberoylanilide hydroxamic acid, reference compound] | – | – | – | – | – | – | – | – | mouse growth and vital organ size ([5]; daily i.p. injection for 1 week): Neither SAHA alone nor mixtures of YW3-56 and SAHA impair; growth of S180 tumor relative to control group (S180 tumor): ~44.6% |
| OO [Structure H2O2, H2O2] | – | – | 3 ± 0.3 | 48.3 ± 5.4 | 13.4 ± 1.4 | U.D. | U.D. | U.D. | – |
| N=C(CCl)NCCC[C@H](NC(=O)c1ccc(-c2ccccc2)cc1)C(=O)NCc1ccccc1 [YW3-88] | ~10 | > 20 | – | – | – | – | – | – | p21 and PUMA proteins by Western blot (p53 and its target genes): Increase; p53 target gene mRNA (p21, GADD45, PUMA, OKL38, DRAM, Sestrin2) (p53 and its target genes; 12 μM): Increase; U2OS cell growth in MTT assay [1]: abolished cell growth |
| N=C(CCl)NCCC[C@H](NC(=O)c1cccc(-c2ccccc2)c1)C(=O)NCc1ccccc1 [YW4-03] | 2.5 to 5 | ~5 | – | – | – | – | – | – | U2OS cell growth in MTT assay [1]: abolished cell growth |
| CN(C)c1ccc2cc(C(=O)N[C@@H](CCCNC(=N)CCl)C(=O)NCc3ccc(NC(=O)CCCNC(=O)CCCCC4SCC5NC(=O)NC54)cc3)ccc2c1 (some centres unmarked) [YW4-15] | 20 to 50 | – | – | – | – | – | – | – | IC50 (PAD4): 1 to 5 µM |
| COc1cccc2c1C(=O)c1c(O)c3c(c(O)c1C2=O)C[C@@](O)(C(=O)CO)C[C@@H]3O[C@H]1C[C@H](N)[C@H](O)[C@H](C)O1 [doxorubicin] | – | – | – | – | – | – | – | – | size of spleen relative to control mice ([5]; doxorubicin 2 mg/kg i.p. daily for 1 week): ~50% |
| lipopolysaccharides [LPS] | – | – | 9.5 ± 0.5 | 42.3 ± 3.9 | 23.4 ± 2.7 | U.D. | U.D. | U.D. | nuclear area increase in size (swelling nuclei) ([3]; PAD4+/+ neutrophils after LPS treatment, NIH image J): ~3.5 fold |
